Results: US10227370B2, “Heparan sulfate/heparin mimetics with anti-chemokine and anti-inflammatory activity” (California Institute of Technology, priority 2013, dated 2019)

Columns and labels:
Format in all cases: biochemical
[1] = test system: citrated human plasma; assay: Prothrombin time (PT) analysis; settings: 150 μg/mL stock, 300 μL in 2.7 mL citrated human plasma; saline control 13.3 s
Method: Samples were prepared by mixing 300 μL of the heparin standard or glycopolymer (150 μg/mL) in 0.9% saline with 2.7 mL citrated human plasma. The tube was inverted 3 times to mix the sample thoroughly. Samples were analyzed by the UCLA Clinical & Translational Research Laboratory using a Sysmex® CA-1500 Coagulation Analyzer (Siemens AG, Erlangen, Germany). Clotting time in the absence of an anticoagulant was determined using 0.9% saline solution water (300 μL). Each clotting assay was performed in triplicate.

[2] = test system: citrated human plasma; assay: Activated partial thromboplastin time (APTT) analysis
Method: Plasma/anticoagulant samples were prepared by mixing 300 μL of the heparin standard or glycopolymer (150 μg/mL) in 0.9% saline and 2.7 mL of citrated human plasma. The tube was inverted 3 times to mix the sample thoroughly. Samples were analyzed by the UCLA Clinical & Translational Research Laboratory using a Sysmex® CA-1500 Coagulation Analyzer (Siemens AG, Erlangen, Germany). Clotting time in the absence of an anticoagulant was determined using 0.9% saline solution water (300 μl). Each clotting assay was performed in triplicate.

[3] = target: T1, FIIa (Homo sapiens, UniProt P01008); assay: Chromogenic assay of anti-FIIa activity in the presence of ATIII, Example 9; settings: FIG. 12, FIG. 13B
T1 construct: purchased
Method: All reagents were prepared according to the manufacturer's instructions and incubated at 37° C. for 15 min. Varying concentrations of heparin, low molecular weight heparin, or glycopolymers (0.0005-500 μg/mL; 40 μL) and ATIII (0.01 IU; 40 μL) were added to a microcentrifuge tube, mixed, and incubated at 37° C. for 2 min. To this, FIIa (1.2 nkat; 40 μL) was added and was incubated at 37° C. for exactly 2 min (stage 1), then FIIa chromogenic substrate (0.05 mmol; 40 μL) was added. Exactly 2 min later (stage 2), the reaction was stopped by introducing citric acid (240 μL; 20 g/L). Absorbance at 405 nm was measured. The sample blank was obtained by mixing the reagents in reverse order from that of the test, i.e. citric acid, […], ATIII, and heparinized sample. The sample blank value was deducted from the absorbance measured for the corresponding assay.

[4] = test system: FXa; assay: Chromogenic assay of anti-FXa activity in the presence of ATIII, Example 9
Method: All reagents were prepared according to the manufacturer's instructions and incubated at 37° C. for 15 min. Varying concentrations of heparin, low molecular weight heparin, Arixtra® or glycopolymers (0.0005-500 μg/mL; 40 μL) and ATIII (0.04 IU; 40 μL) were added to a microcentrifuge tube, mixed, and incubated at 37° C. for 2 min. To this, FXa (0.32 μg; 40 μL) was added and was incubated at 37° C. for exactly 2 min (stage 1), then FXa chromogenic substrate (48 μmol; 40 μL) was added. Exactly 2 min later (stage 2), the reaction was stopped by introducing citric acid (240 μL; 20 g/L solution). Absorbance at 405 nm was measured on a Uvikon XL spectrophotometer. The sample blank was obtained by mixing the reagents in reverse order from that of the test, i.e. citric acid, FXa substrate, FXa, ATIII, and heparinized sample. The sample blank value was deducted from the absorbance measured for the corresponding assay.

CO[C@H]1O[C@H](COS(=O)(=O)O)[C@@H](O[C@@H]2O[C@@H](C(=O)O)[C@@H](O[C@H]3O[C@H](COS(=O)(=O)O)[C@@H](O[C@@H]4O[C@H](C(=O)O)[C@@H](O[C@H]5O[C@H](COS(=O)(=O)O)[C@@H](O)[C@H](O)[C@H]5NS(=O)(=O)O)[C@H](O)[C@H]4O)[C@H](OS(=O)(=O)O)[C@H]3NS(=O)(=O)O)[C@H](O)[C@H]2OS(=O)(=O)O)[C@H](O)[C@H]1NS(=O)(=O)O [Arixtra]
PT [1]: 15.1 ± 0.3 s
APTT ([2]; 150 μg/mL stock, 300 μL in 2.7 mL citrated human plasma, saline control 31.2 s): 78.3 ± 0.4 s
effect on APTT and PT for clotting compared to the saline control ([2]; same concentration, citrated human plasma): increased only the APTT
anti-FIIa activity [3]: no appreciable activity
IC50 [4]: 11 ± 0.1 nM
